In data set [1] the test system is myeloproliferative neoplasm cells; endogenous erythroid colonies representing malignant PV clones. The following applies: cited from earlier work.
Data set [2] relates to myeloproliferative neoplasm patient samples cultured ex vivo and myeloproliferative neoplasm-derived cell lines bearing the activating JAK-2 V617F mutation. The following applies: cited from earlier work.
The test system of data set [3] is subjects with primary or secondary myelofibrosis. In words: Phase 2 study of navitoclax in combination with ruxolitinib (Example 1). The text has this: Treatment continued until the end of clinical benefit, unacceptable toxicity, or discontinuation. The primary efficacy endpoint was percentage reduction in splenic volume from baseline. Secondary endpoints included effect on total symptom score (TSS), overall response rate, rate of anemia response, improvement in bone marrow fibrosis, and safety profile.
For this study, inclusion criteria included the following: • 1. Subject must be ≥18 years of age. • 2. Subject has documented diagnosis of Intermediate or High-Risk Primary Myelofibrosis, Post-Polycythemia Vera Myelofibrosis (PPV-MF), or Post-Essential Thrombocythemia Myelofibrosis (PET-MF) as defined by the World Health Organization classification. • 3. Subject must be ineligible or unwilling to undergo stem cell transplantation at time of study entry. • 4. Subject must have an Eastern Cooperative Oncology Group (ECOG) Performance Score of 0, 1, or 2. • 5. […] Prior treatment with JAK-2 inhibitor for at least 12 weeks • b. Prior treatment with JAK-2 inhibitor for at least 28 days complicated by any of the following: • i. […] Splenic irradiation within 6 months prior to screening, or prior splenectomy. • 2. Leukemic transformation (>10% blasts in peripheral blood or bone marrow biopsy). • 3. Subject is currently on medications that interfere with coagulation (including warfarin) or platelet function with the exception of low dose aspirin (up to 100 mg) and low-molecular-weight heparin (LMWH). • 4. Prior therapy with a BH3 mimetic compound. • 5.
Subjects needed to have received ruxolitinib therapy for at least 12 weeks prior to study enrollment without interruption, have splenomegaly as defined by a spleen palpable ≥5 cm below costal margin and be currently on a stable dose of ≥10 mg BID of ruxolitinib.

The test system of data set [4] is platelets. As to the kind of experiment: exposure-platelet response model, parameter estimation (NONMEM). The arrangement: species or system human. The text has this:
The model was based on established models described in the literature (Kaefer, A., Yang, J., Noertersheuser, P. et al. Cancer Chemother Pharmacol (2014) 74: 593. doi:10.1007/s00280-014-2530-2530; and Friberg, Lena E., et al. “Model of chemotherapy-induced myelosuppression with parameter consistency across drugs. “Journal of clinical oncology 20.24 (2002): 4713-4721, both references hereby incorporated by reference in their entireties).
PK model for ruxolitinib was described by a two-compartment model with a lag-time in absorption (Equations 2a through 2c).
The time course of platelet response was modeled using a semi-physiological model that comprised a progenitor cell compartment, three transition compartments representing the maturation chain in the bone marrow and a peripheral blood compartment (see FIG. 2). A feedback system was used in this model to describe the increase in the maturation rate in bone marrow when the platelet level in the blood compartment is below baseline and decrease in the maturation rate when the platelet level in blood is above baseline. […] Equations 3 to 9 represent the PD model.
The model is initialized at 0 for the PK related compartments, at POOL for the PROLIF compartment, and at 1 for the maturation and circulation compartments. The platelet prediction is obtained by (Baseline Platelets)×PLT1×PLT2. The rates of the Platelet1 model are set to be the same ktrans=kin=kout due to a steady state assumption without treatment interference.
A factor was included on the baseline platelet count such that baseline(t=−84 days)=factor×baseline(t=0 days)
This yields a relative pseudo baseline at initiation of ruxolitinib (referred to as ‘ruxolitinib factor’ on baseline platelet count). […] The first 56 days of data were fitted to avoid influence of long-term disease effects on the model.
No inter-individual variability was estimated on ruxolitinib EC50 since limited data precluded its appropriate estimation.

The test system of data set [5] is spleen volume. The following applies: spleen volume inhibition, fixed to a published value, cited from earlier work.
Data set [6] relates to spleen volume. As to the kind of experiment: exposure-spleen volume response model, parameter estimation (NONMEM). The following applies: spleen volume inhibition; R/R MF, cohort 1a data. The arrangement: species or system human. The text has this: Spleen volume data up to only week 40 was used in the model to improve model predictability. […] Inter-individual variability with full correlation matrix was incorporated on estimated baseline spleen volume, kout, EC50NAV and EC50RUX using exponential function and the residual variability was characterized using combined proportional and additive error model.
At baseline, the rates of the spleen volume model are set to be the same kin=kout due to a theoretical steady state assumption without treatment interference. This leads to an initial condition for the SV compartment of 1, where SV predictions are derived by multiplying this compartment with baseline. Disease progression was included in the model with the factor “Eprog” on “kin”.

Data set [7] deals with patients with intermediate or high-risk primary or secondary myelofibrosis. The following applies: ruxolitinib monotherapy; cited from earlier work.
In data set [8] the test system is platelets. The following applies: effect on platelets, cited from earlier work; for Ruxolitinib EC50: fixed to published value.
For data set [9], the system named is tumors in mice bearing the Eμ-TEL-JAK-2 transgene or PDX mice bearing JAK-2-mutated B-ALL cells. The following applies: cited from earlier work.
The conditions of data set [10]: 400 mg once daily ketoconazole; 10 subjects with cancer; cited from earlier work.
The target in another data set is T1, BCL-W (Homo sapiens, UniProt Q92843).
T1 sequence (Q92843 1-193): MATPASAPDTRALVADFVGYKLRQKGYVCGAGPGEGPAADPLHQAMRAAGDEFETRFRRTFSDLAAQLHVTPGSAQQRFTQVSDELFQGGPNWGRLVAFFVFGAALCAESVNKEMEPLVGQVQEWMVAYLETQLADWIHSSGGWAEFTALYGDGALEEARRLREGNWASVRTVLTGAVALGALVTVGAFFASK
The following applies: cited from earlier work.

Data set [11] deals with 22 cell lines consisting of multiple leukemia and lymphoma types spanning both B-cell and T-cell malignancies. The following applies: cited from earlier work.
The nature of data set [12]: co-administration of navitoclax with rifampin. It is filed as in vivo, human. The following applies: 600 mg once daily rifampin for 4 days; 11 subjects with cancer. The text has this:
Increased dosage should be made with frequent monitoring of safety and efficacy.

The subject of data set [13] is resistance to JAK-2 inhibitors associated with BCL-XL elevation. The following applies: cited from earlier work.
Data set [14] relates to human tumor cell lines derived from small cell lung carcinomas and lymphoid malignancies. The following applies: read-out: EC50, mechanism-based cytotoxicity; cited from earlier work.
[15] abbreviates: 22 subjects with ruxolitinib dose reduction.

Structures are written as SMILES. Like-named read-outs stand apart in the source and are kept apart here.

The Ki is the dissociation constant of the complex between target and ligand, obtained from inhibition or displacement. By EC50 is commonly meant the midpoint of the concentration-response curve.

With `CN(C)CC[C@H](CSc1ccccc1)Nc1ccc(S(=O)(=O)NC(=O)c2ccc(N3CCN(Cc4ccccc4-c4ccc(Cl)cc4)CC3)cc2)cc1[N+](=O)[O-]` [ABT-737], the “endogenous erythroid colonies growing in the absence of erythropoietin” value in data set [1] (500 nM ABT-737) is “significantly inhibited”; in data set [1] (100-300 nM ABT-737 combined with a JAK-2 inhibitor), “further suppressed”. Moreover, the “proliferation of myeloproliferative neoplasm cells” value in data set [1] is reported as “ability to block the proliferation”. In [2], the cell killing activity result is recorded as “cell killing activity”.

For the compound `N#CC[C@H](C1CCCC1)n1cc(-c2ncnc3[nH]ccc23)cn1` [Ruxolitinib, (R)-3-(4-(7H-pyrrolo[2,3-d]pyrimidin-4-yl)-1H-pyrazol-1-yl)-3-cyclopentylpropanenitrile], the “ruxolitinib dose reductions due to anemia” value in data set [3] (setting [15]) is given as 18.2%. In addition, the “ruxolitinib dose reductions due to thrombocytopenia” value in [3] (setting [15]) is listed as 86.4%. Moreover, the “subjects whose ruxolitinib dose was reduced to 10 mg BID” value in data set [3] (25 subjects enrolled on ruxolitinib >10 mg BID) is listed as 88%. Moreover, the “ruxolitinib factor for relative pseudo baseline platelet count” value in the data set on platelets [4] is 1.53 fold. The “drop in platelet count” value in the data set with platelets [4] (at average ruxolitinib concentration) is recorded as around 36%. The “BaselineFactor (ruxolitinib factor on baseline platelet count), estimate and 95% confidence interval” value in the data set with platelets [4] (pseudo baseline at initiation of ruxolitinib relative to baseline at initiation of navitoclax) is given as 1.53 (1.41; 1.65). In addition, the “Ruxolitinib Emax” value is given as 0.765 fixed in the data set on spleen volume [5]; 0.765 in the data set on spleen volume [5] (listed as ruxolitinib); 1 in the data set on platelets [8] (fixed, assumed (JAKAFI approval package)). In addition, the “Ruxolitinib EC50, estimate” value in the data set with spleen volume [6] was 0.0144 µg/mL. The “patients achieving spleen volume reduction of ≥35% (SVR35)” value in [7] is “approximately 40%”. For the same compound, the “time after start of monotherapy within which SVR35 is typically observed” value in data set [7] is at most 12 weeks. The “Ruxolitinib EC50” value with platelets [8] was 0.0825 µg/mL; in the data set on platelets [8] (listed as ruxolitinib), 0.08248 µg/mL.

With `CC1(C)CCC(c2ccc(Cl)cc2)=C(CN2CCN(c3ccc(C(=O)NS(=O)(=O)c4ccc(N[C@H](CCN5CCOCC5)CSc5ccccc5)c(S(=O)(=O)C(F)(F)F)c4)cc3)CC2)C1` [Navitoclax, 4-(4-{[2-(4-chlorophenyl)-5,5-dimethyl-1-cyclohexen-1-yl]methyl}-1-piperazinyl)-N-[(4-{[(2R)-4-(4-morpholinyl)-1-(phenylsulfanyl)-2-butanyl]amino}-3-[(trifluoromethyl)sulfonyl]phenyl)sulfonyl]benzamide], the “survival of mice with JAK-2-mutated tumors” value in [9] (combination of navitoclax and a JAK-2 inhibitor vs either agent alone) was “superior to either agent alone”. Besides, the growth of tumors entry in data set [9] (navitoclax added to a JAK-2 inhibitor) is recorded as “significantly slowing the growth of tumors”. In addition, in data set [10], the “impact on navitoclax Cmax” value is reported as “no impact” and the “increase of navitoclax AUC∞” value is listed as 1.55 fold. For the same compound, in data set [3] (human, in vivo), the “Dose Delay/Interruption: More Than One Interruption, %” value was “(39.1) %”; the “Dose Delay/Interruption: No Interruption, %” value is “(34.8) %”; the “Dose Delay/Interruption: Only One Interruption, %” value is on record as “(26.1) %”; the “Dose Reduction: More Than One Dose Reduction, %” value is on record as “(39.1) %”. Moreover, in [3] (human, in vivo), the “Dose Reduction: No Dose Reduction, %” value was “(17.4) %”; the “Dose Reduction: Only One Dose Reduction, %” value is “(43.5) %”; the “Reasons for Dose Delay/Interruption: Adverse Events, %” value is recorded as “(52.2) %”; the “Reasons for Dose Delay/Interruption: Anemia, %” value is given as “(4.3) %”. Further, in data set [3] (human, in vivo), the “Reasons for Dose Delay/Interruption: Diarrhea, %” value was “(4.3) %”; the “Reasons for Dose Delay/Interruption: Other adverse events, %” value is reported as “(17.4) %”; the “Reasons for Dose Delay/Interruption: Thrombocytopenia, %” value is “(34.8) %”; the “Reasons for Dose Reduction: Adverse Events, %” value was “(73.9) %”. In addition, in data set [3] (human, in vivo), the “Reasons for Dose Reduction: Anemia, %” value was “(17.4) %”; the “Reasons for Dose Reduction: Diarrhea, %” value is recorded as “(8.7) %”; the “Reasons for Dose Reduction: Other adverse events, %” value is “(30.4) %”; the “Reasons for Dose Reduction: Thrombocytopenia, %” value was “(47.8) %”. Besides, in data set [3] (in vivo), the “Reasons for Dose Delay/Interruption: Other (non-adverse event), %” value is listed as “(30.4) %” and the “Reasons for Dose Reduction: Other (non-adverse event), %” value was “(17.4) %”. Also, the “Navitoclax EC50, estimate and 95% confidence interval” value in the data set on platelets [4] (effect on platelets, fitted to data of 34 subjects) is reported as 3.61 (1.97; 6.58) mg/L. Moreover, the Ki at BCL-W was at most 1 nM. The “cell lines with potent single agent activity” value in data set [11] was 10 of 22. Further, in data set [12], the “decrease of navitoclax AUC∞” value was determined as 41% and the “decrease of navitoclax Cmax” value was 16%. Further, the “Navitoclax EC50, estimate” value in the data set on spleen volume [6] is 4.37 µg/mL. Also, the “overcoming resistance to JAK-2 inhibitors” value in data set [13] is on record as “ability to overcome that resistance”. The EC50 in data set [14] was at most 1000 nM. Moreover, the “Navitoclax Emax” value with platelets [8] (fixed, based on Kaefer et al.) is reported as 5. Further, the cell killing activity result in data set [2] is “cell killing activity”.

The values are drawn from US11285159B2 (AbbVie Inc., priority 2019, dated 2022).
